Test systems include LOX IMVI melanoma; NCI-H226 lung; HCC-2998 colon; HT29 colon; UACC-257 melanoma; RXF 393 renal; BT-549 breast; COLO 205 colon; SR leukemia; KM12 colon; OVCAR-3 ovarian.
Holding throughout (test): DTP human tumour cell line panel, 48 h

Experimental findings from PubChem BioAssay (NCI) are described below.

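96-well plates; 48 h exposure; 5 concentrations. Endpoints by linear interpolation between flanking doses. Not reached: highest tested concentration assigned. TGI is the concentration that stops growth completely.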 Some results are limits rather than exact numbers.

Take `CC(C)(C)c1ccc(C(C)(C)C)c(N2C(=O)C3ON=C(c4ccc([N+](=O)[O-])cc4)C3C2=O)c1` (configuration not stated): the concentration for total growth inhibition (TGI) in the assay on LOX IMVI melanoma, with NCI-H226 lung, with HCC-2998 colon, in the assay on HT29 colon, in the assay with UACC-257 melanoma and in the assay on RXF 393 renal was greater than 25 µM in each case. The total growth inhibition concentration (TGI) in the assay on BT-549 breast, in the assay with COLO 205 colon, in the assay with SR leukemia, with KM12 colon and in the assay with OVCAR-3 ovarian was greater than 25 µM each time.

As to `C/C(=N\N=C(N)N)C(CN(C)C)C(c1ccccc1)c1c(O)c2ccccc2oc1=O` (configuration not stated), the TGI in the assay on LOX IMVI melanoma, in the assay on NCI-H226 lung, in the assay on HCC-2998 colon, in the assay on HT29 colon, in the assay on UACC-257 melanoma and with RXF 393 renal was greater than 100 µM each time. The total growth inhibition concentration (TGI) in the assay with BT-549 breast, in the assay with COLO 205 colon, with SR leukemia, in the assay with KM12 colon and in the assay on OVCAR-3 ovarian was greater than 100 µM in each case.

Turning to `CC1CCc2sc3[nH]c(=S)n(-c4ccccc4)c(=O)c3c2C1` (configuration not stated), the total growth inhibition concentration (TGI) (usually the concentration giving total growth inhibition) in the assay on LOX IMVI melanoma is greater than 100 µM; in the assay with NCI-H226 lung, greater than 100 µM; with HCC-2998 colon it was 67.8 µM; with HT29 colon it was greater than 100 µM; in the assay with UACC-257 melanoma it was greater than 100 µM; in the assay on RXF 393 renal, greater than 100 µM. Further, the concentration for total growth inhibition (TGI) was greater than 100 µM in the assay on BT-549 breast; greater than 100 µM with COLO 205 colon; greater than 100 µM in the assay on SR leukemia; greater than 100 µM with KM12 colon; 85.3 µM in the assay on OVCAR-3 ovarian.

Regarding `CC12CCC(C(Nc3ccccn3)C1=O)C2(C)C` (configuration not stated), the concentration for total growth inhibition (TGI) in the assay on LOX IMVI melanoma, in the assay on NCI-H226 lung, in the assay on HCC-2998 colon, in the assay with HT29 colon, with UACC-257 melanoma and with RXF 393 renal was greater than 100 µM each time. In addition, the TGI in the assay with BT-549 breast, in the assay with COLO 205 colon, with SR leukemia, in the assay with KM12 colon and in the assay on OVCAR-3 ovarian was greater than 100 µM each time.

With `COC(=O)c1cc(C(=CCC[C@H]2CC[C@@]3(C)C(CCC4C3CC[C@@]3(C)C4CC[C@@H]3C(C)CCCC(C)C)C2)c2cc(Cl)c(OC(=O)c3ccccc3)c(C(=O)OC)c2)cc(Cl)c1OC(=O)c1ccccc1` (some centres not stated), the TGI in the assay on LOX IMVI melanoma, with NCI-H226 lung, in the assay on HCC-2998 colon, with HT29 colon, with UACC-257 melanoma and in the assay on RXF 393 renal was greater than 10 µM each time. Moreover, the TGI with BT-549 breast, with COLO 205 colon, in the assay with SR leukemia, with KM12 colon and with OVCAR-3 ovarian was greater than 10 µM each time.

As to `O=C(N/N=C\c1ccccc1)Nc1cccc2ccccc12`, the total growth inhibition concentration (TGI) is greater than 100 µM in the assay with LOX IMVI melanoma; 83.6 µM in the assay with NCI-H226 lung; greater than 100 µM with HCC-2998 colon; 69.9 µM in the assay with HT29 colon; greater than 100 µM in the assay on UACC-257 melanoma; greater than 100 µM in the assay with RXF 393 renal. The concentration for total growth inhibition (TGI) is 98.3 µM in the assay with BT-549 breast; greater than 100 µM in the assay on COLO 205 colon; greater than 100 µM in the assay with SR leukemia; greater than 100 µM with KM12 colon; greater than 100 µM in the assay on OVCAR-3 ovarian.

For `NS(=O)(=O)c1nnc(NS(=O)(=O)c2ccccc2C(=O)O)s1`, the concentration for total growth inhibition (TGI) in the assay on LOX IMVI melanoma, in the assay on NCI-H226 lung, with HCC-2998 colon, in the assay on HT29 colon, with UACC-257 melanoma and in the assay with RXF 393 renal was greater than 100 µM in each case. In addition, the total growth inhibition concentration (TGI) in the assay on BT-549 breast, in the assay on COLO 205 colon, in the assay with SR leukemia, in the assay with KM12 colon and in the assay on OVCAR-3 ovarian was greater than 100 µM throughout.

Take `Clc1c(C(Cl)(Cl)Cl)nsc1N1CCCCC1`: the concentration for total growth inhibition (TGI) in the assay with LOX IMVI melanoma worked out at 32.5 µM; in the assay with NCI-H226 lung, 36.2 µM; in the assay on HCC-2998 colon, 47.9 µM; with HT29 colon, 38.3 µM; in the assay with UACC-257 melanoma it was 64.7 µM; with RXF 393 renal, 32.3 µM. For the same compound, the concentration for total growth inhibition (TGI) in the assay on BT-549 breast was 48.4 µM; in the assay with COLO 205 colon, 30.5 µM; in the assay on SR leukemia it was 36.5 µM; in the assay on KM12 colon, 55.7 µM; in the assay with OVCAR-3 ovarian, 56.9 µM.

With `CC(=O)N1c2ccccc2C(C)C1c1[nH]c2ccccc2c1C` (configuration not stated), the TGI in the assay with LOX IMVI melanoma was greater than 100 µM; in the assay on NCI-H226 lung it was 72.3 µM; in the assay on HCC-2998 colon it was 34 µM; in the assay with HT29 colon, 57.1 µM; in the assay on UACC-257 melanoma, 49.3 µM; with RXF 393 renal, 28.4 µM. The total growth inhibition concentration (TGI) in the assay with BT-549 breast came to 58.1 µM; in the assay with COLO 205 colon, 27.9 µM; in the assay with SR leukemia, 51.8 µM; in the assay with KM12 colon it was 38.4 µM; in the assay with OVCAR-3 ovarian, 46.1 µM.

Take `COc1ccc2cc(C(=O)NCCCNC(=O)c3ccc4cc(OC)ccc4c3)ccc2c1`: the concentration for total growth inhibition (TGI) in the assay on LOX IMVI melanoma is greater than 100 µM; with NCI-H226 lung, greater than 100 µM; in the assay on HCC-2998 colon it was greater than 100 µM; in the assay on HT29 colon, greater than 100 µM; with UACC-257 melanoma, greater than 100 µM; with RXF 393 renal it was 39.6 µM. The total growth inhibition concentration (TGI) in the assay on BT-549 breast, in the assay with COLO 205 colon, in the assay with SR leukemia, in the assay on KM12 colon and in the assay on OVCAR-3 ovarian was greater than 100 µM throughout.

Regarding `N=c1c2c(=S)n(-c3ccccc3)c(=S)n(-c3ccccc3)c2nc(SCCN2CCOCC2)n1-c1ccccc1`, the TGI in the assay with LOX IMVI melanoma was 3.71 µM; in the assay on NCI-H226 lung, 15.5 µM; with HCC-2998 colon it was 3.24 µM; in the assay on HT29 colon it was 4.03 µM; in the assay on UACC-257 melanoma it was 4.28 µM; with RXF 393 renal it was 3.55 µM. In addition, the TGI in the assay on BT-549 breast came out at 4.51 µM; in the assay on COLO 205 colon, 3.66 µM; with SR leukemia it was 2.79 µM; with KM12 colon, 6.09 µM; in the assay on OVCAR-3 ovarian, 3.3 µM.

Turning to `CC1(C)CCC(=O)NC1CC(=O)CC1NC(=O)CCC1(C)C` (configuration not stated), the TGI in the assay with LOX IMVI melanoma, in the assay on NCI-H226 lung, in the assay on HCC-2998 colon, in the assay on HT29 colon, in the assay on UACC-257 melanoma and in the assay on RXF 393 renal was greater than 100 µM throughout. Further, the TGI in the assay with BT-549 breast, in the assay on COLO 205 colon, with SR leukemia, with KM12 colon and in the assay with OVCAR-3 ovarian was greater than 100 µM in each case.
